Experimental data taken from patent US20060111381A1, “Amidine compounds” (priority 2002, published 2006).
Values joined by “and” are separate entries in the source; they are usually repeats but may differ in a detail not shown here. Identical values can stand only once. Counter-ions that a name gives are not always drawn.

Key:
human μ-opiate receptor = biological target: T1, human μ-opiate receptor (Homo sapiens, UniProt P35372); assay: In vitro opiate receptor radioligand binding assay (MDS 260410); conditions: test compound 10 μM, read-out: Percentage Inhibition of Radioligand Binding
T1 construct: purchased MDS Pharma Services 260410
Procedure: (§1) To characterise the target specificity of the compounds, KRS-6-41, KRS-6-48 and KRS-6-51 were tested at a concentration of 10 μM for their ability to inhibit the binding of a radioligand to human δ-, κ-, or μ-opiate receptors in vitro using commercially available assays (MDS Pharma Services; assay catalogue numbers 260110, 260210 and 260410 respectively).

ICR mice [1] = assay: Phenylquinone-induced writhing model in mice (writhes counted in following 5-10 minute period); assay type: in vivo; conditions: for No. of Writhings, Individual: individual mice; for % Inhibition: relative to vehicle group
Procedure: (§2) Testing on compound KRS-6-48 was carried out under contract by MDS Services—Taiwan Ltd. KRS-6-48 was evaluated for possible analgesic activity in the phenylquinone-induced writhing model in mice (Siegmund et al, 1957). A serial 2-fold dosage variance was used in the test, from 128 mg/kg to 1 mg/kg (8 doses in total). Groups of 3 male or female ICR mice weighing 22±2 g were employed. Variant doses (1, 2, 4, 8, 16, 32, 64 and 128 mg/kg) of test substances were administered intraperitoneally (IP). A vehicle of 2% Tween 80 in 0.9% NaCl was used for the intraperitoneal injection. The control group received vehicle alone. […] A reduction in the number of writhes by 50 percent or more (≧50%) relative to the vehicle-treated group indicated possible analgesic activity.
Testing on compounds KRS-6-41, KRS-6-51, and KRS-6-71 was also carried out under contract by MDS Services—Taiwan Ltd. The study was designed to evaluate the effects of the compounds as analgesics in the phenylquinone-induced writhing assay described in detail in Example 10 (Siegmund et al, 1957).
as §2, with “In each case, a” for “Testing on compound KRS-6-48 was carried out under contract by MDS Services—Taiwan Ltd. KRS-6-48 was evaluated for possible analgesic activity in the phenylquinone-induced writhing model in mice (Siegmund et al, 1957). A”

ICR mice [2] = assay: Straub tail behaviour (indicator of CNS activity) in writhing-study mice; conditions: any doses (1 to 128 mg/kg IP)
human κ-opiate receptor = biological target: T2, human κ-opiate receptor (Homo sapiens, UniProt P41145); assay: In vitro opiate receptor radioligand binding assay (MDS 260210); conditions: test compound 10 μM, read-out: Percentage Inhibition of Radioligand Binding
T2 construct: purchased MDS Pharma Services 260210
Procedure: as §1

human δ-opiate receptor = biological target: T3, human δ-opiate receptor (Homo sapiens, UniProt P41143); assay: In vitro opiate receptor radioligand binding assay (MDS 260110); conditions: test compound 10 μM, read-out: Percentage Inhibition of Radioligand Binding
T3 construct: purchased MDS Pharma Services 260110
Procedure: as §1

ICR mice [3] = assay: Deaths and adverse signs observed in writhing-study mice; assay type: in vivo
Procedure: as §2
as §2, with “In each case, a” for “Testing on compound KRS-6-48 was carried out under contract by MDS Services—Taiwan Ltd. KRS-6-48 was evaluated for possible analgesic activity in the phenylquinone-induced writhing model in mice (Siegmund et al, 1957). A”

T3 sequence (P41143 whole entry): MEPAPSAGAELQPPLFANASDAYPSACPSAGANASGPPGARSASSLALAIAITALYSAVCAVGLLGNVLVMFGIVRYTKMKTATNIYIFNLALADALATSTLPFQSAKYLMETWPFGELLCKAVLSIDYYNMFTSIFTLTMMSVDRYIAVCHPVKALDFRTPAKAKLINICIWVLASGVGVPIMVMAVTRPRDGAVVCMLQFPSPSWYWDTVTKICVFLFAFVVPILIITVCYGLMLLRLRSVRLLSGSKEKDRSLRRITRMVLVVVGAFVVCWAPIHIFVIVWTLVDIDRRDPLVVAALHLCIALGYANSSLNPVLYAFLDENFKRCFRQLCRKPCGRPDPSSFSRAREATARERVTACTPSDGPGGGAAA
T1 sequence (P35372 whole entry): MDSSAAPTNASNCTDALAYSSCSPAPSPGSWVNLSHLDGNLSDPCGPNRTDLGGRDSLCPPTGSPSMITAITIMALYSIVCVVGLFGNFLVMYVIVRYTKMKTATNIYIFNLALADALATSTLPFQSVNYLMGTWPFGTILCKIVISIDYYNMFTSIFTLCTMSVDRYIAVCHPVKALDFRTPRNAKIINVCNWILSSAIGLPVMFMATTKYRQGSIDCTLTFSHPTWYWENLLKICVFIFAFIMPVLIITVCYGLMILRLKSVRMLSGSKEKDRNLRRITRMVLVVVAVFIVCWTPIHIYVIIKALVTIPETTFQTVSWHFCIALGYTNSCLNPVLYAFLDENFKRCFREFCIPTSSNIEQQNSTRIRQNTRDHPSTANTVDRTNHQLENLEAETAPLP
T2 sequence (P41145 whole entry): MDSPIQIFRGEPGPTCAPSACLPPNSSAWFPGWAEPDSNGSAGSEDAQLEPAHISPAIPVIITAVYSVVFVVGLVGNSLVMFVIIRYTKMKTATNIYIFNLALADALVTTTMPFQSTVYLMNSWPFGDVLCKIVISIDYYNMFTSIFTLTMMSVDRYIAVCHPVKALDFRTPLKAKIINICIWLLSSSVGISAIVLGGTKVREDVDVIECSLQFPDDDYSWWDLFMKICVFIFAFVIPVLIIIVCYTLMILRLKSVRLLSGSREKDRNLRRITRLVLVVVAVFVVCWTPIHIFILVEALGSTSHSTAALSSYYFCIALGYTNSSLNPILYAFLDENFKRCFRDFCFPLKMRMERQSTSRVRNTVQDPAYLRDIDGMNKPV

Row | SMILES | inhibition at 10 µM (human μ-opiate receptor) [%] | No. of Writhings, Average (ICR mice [1]; 1 mg/kg IP) | No. of Writhings, Individual (ICR mice [1]; 1 mg/kg IP) | % Inhibition (ICR mice [1]; 1 mg/kg IP) [%] | No. of Writhings, Average (ICR mice [1]; 2 mg/kg IP) | No. of Writhings, Individual (ICR mice [1]; 2 mg/kg IP) | % Inhibition (ICR mice [1]; 2 mg/kg IP) [%] | No. of Writhings, Average (ICR mice [1]; 4 mg/kg IP) | No. of Writhings, Individual (ICR mice [1]; 4 mg/kg IP) | % Inhibition (ICR mice [1]; 4 mg/kg IP) [%] | No. of Writhings, Average (ICR mice [1]; 8 mg/kg IP) | No. of Writhings, Individual (ICR mice [1]; 8 mg/kg IP) | % Inhibition (ICR mice [1]; 8 mg/kg IP) [%] | No. of Writhings, Average (ICR mice [1]; 16 mg/kg IP) | No. of Writhings, Individual (ICR mice [1]; 16 mg/kg IP) | % Inhibition (ICR mice [1]; 16 mg/kg IP) [%] | No. of Writhings, Average (ICR mice [1]; 32 mg/kg IP) | No. of Writhings, Individual (ICR mice [1]; 32 mg/kg IP) | % Inhibition (ICR mice [1]; 32 mg/kg IP) [%] | No. of Writhings, Individual (ICR mice [1]; 64 mg/kg IP) | other results
1 | CCC(=Nc1ccccc1)NCCCN1CC[C@]23c4c5ccc(O)c4O[C@H]2[C@@H](O)C=CC3[C@H]1C5 (stereo partly drawn) (as salt: HCl) [KRS-6-48, (5α,6α)-7,8-didehydro-4,5-epoxy-17-((N-phenylpropionamidino)-propyl)morphinan, 3,6-diol] |  |  |  |  |  |  |  |  |  |  |  |  |  |  |  |  |  |  |  |  | melting point: 188 to 190 °C
2 | CC(=N)NCCCN1CC[C@]23c4c5ccc(O)c4O[C@H]2[C@@H](O)C=CC3[C@H]1C5 (stereo partly drawn) [KRS-6-41, (5α,6α)-7,8-didehydro-4,5-epoxy-17-(3-acetamidinopropyl)morphinan, 3,6-diol] | 97 | 14 | 12 and 15 and 14 | 0 | 14 | 14 and 6 and 22 | 0 | 12 | 14 and 8 and 15 | 8 | 10 | 6 and 10 and 14 | 23 | 9 | 5 and 16 and 6 | 31 | 8 | 4 and 10 and 11 | 38 | 4 and 14 and died | No. of Writhings, Individual (ICR mice [1]; 128 mg/kg IP): died; inhibition of writhing (in words) (ICR mice [1]; at doses of 32, 16, 8 and 4 mg/kg IP): a moderate level of inhibition of writhing; Straub tail behaviour (ICR mice [2]): None exhibited Straub tail behaviour; inhibition at 10 µM (human κ-opiate receptor): 58%; inhibition at 10 µM (human δ-opiate receptor): 68%; test animals died (ICR mice [3]; 64 mg/kg IP): 1 of 3; test animals died (ICR mice [3]; 128 mg/kg IP): 3 of 3
3 | CCC(=Nc1ccccc1)NCCCN1CC[C@]23c4c5ccc(O)c4O[C@H]2[C@@H](O)C=CC3[C@H]1C5 (stereo partly drawn) [KRS-6-48, (5α,6α)-7,8-didehydro-4,5-epoxy-17-((N-phenylpropionamidino)-propyl)morphinan, 3,6-diol] | 97 | 14 | 10 and 20 and 13 | 0 | 13 | 8 and 20 and 10 | 0 | 9 | 10 and 8 and 9 | 31 | 7 | 12 and 4 and 5 | 46 | 6 | 1 and 13 and 4 | 54 | 1 | 0 and 1 (2×) | 92 | 0 | No. of Writhings, Average (ICR mice [1]; 64 mg/kg IP): 0; % Inhibition (ICR mice [1]; 64 mg/kg IP): 100%; No. of Writhings, Average (ICR mice [1]; 128 mg/kg IP): 0; No. of Writhings, Individual (ICR mice [1]; 128 mg/kg IP): 0; % Inhibition (ICR mice [1]; 128 mg/kg IP): 100%; analgesic activity in writhing model (in words) (ICR mice [1]; at doses of 128, 64, 32 and 16 mg/kg IP): Very significant activity; Straub tail behaviour (ICR mice [2]): did not exhibit Straub tail behaviour; inhibition at 10 µM (human κ-opiate receptor): 48%; inhibition at 10 µM (human δ-opiate receptor): 29%
